{"source": "ChEMBL document CHEMBL1944604", "about": "“Aminopurine based JNK inhibitors for the prevention of ischemia reperfusion injury” (Bioorg Med Chem Lett, 2012)", "key": {"[1]": {"system": "Rattus norvegicus", "assay": "Toxicity in rat non-anesthetized rat at 10 mg/kg, iv infusion administered 4 hrs for 4 consecutive days", "format": "organism-based", "parameters": "dose 10 mg/kg, route intravenous", "details": "in vivo; call rule not given here"}, "[2]": {"assay": "AUC in dog at 1 mg/kg, iv bolus", "format": "ADME, organism-based, Canis lupus familiaris", "parameters": "dose 1 mg/kg, route intravenous", "details": "plasma"}, "[3]": {"system": "Rattus norvegicus", "assay": "Antiischemic activity in Lewis rat ischemia reperfusion model assessed as increase in survival rate at 3 mg/kg, iv bolus administered 15 mins before ischemia challenge relative to control", "format": "functional"}, "[4]": {"biological_target": "CYP2D6 (Homo sapiens, UniProt P10635)", "sequence (P10635 whole entry)": "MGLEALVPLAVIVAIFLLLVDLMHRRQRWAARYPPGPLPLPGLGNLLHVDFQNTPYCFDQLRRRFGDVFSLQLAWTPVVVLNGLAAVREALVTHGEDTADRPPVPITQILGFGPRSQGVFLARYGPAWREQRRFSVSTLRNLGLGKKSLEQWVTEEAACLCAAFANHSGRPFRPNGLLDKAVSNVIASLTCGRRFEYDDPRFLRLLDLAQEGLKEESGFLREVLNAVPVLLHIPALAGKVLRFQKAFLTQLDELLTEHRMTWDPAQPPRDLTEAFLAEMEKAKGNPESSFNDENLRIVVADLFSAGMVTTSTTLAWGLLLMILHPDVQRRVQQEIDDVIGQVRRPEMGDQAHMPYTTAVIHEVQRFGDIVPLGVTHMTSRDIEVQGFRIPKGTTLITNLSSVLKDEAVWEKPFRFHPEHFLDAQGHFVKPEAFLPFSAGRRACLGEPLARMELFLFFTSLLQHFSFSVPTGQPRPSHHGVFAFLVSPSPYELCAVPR", "assay": "Drug metabolism assessed as CYP2D6-mediated compound loss after 30 mins", "format": "ADME", "details": "recombinant enzyme; read-out: Drug metabolism"}, "[5]": {"biological_target": "Mitogen-activated protein kinase 14 (Homo sapiens, UniProt Q16539)", "sequence (Q16539 whole entry)": "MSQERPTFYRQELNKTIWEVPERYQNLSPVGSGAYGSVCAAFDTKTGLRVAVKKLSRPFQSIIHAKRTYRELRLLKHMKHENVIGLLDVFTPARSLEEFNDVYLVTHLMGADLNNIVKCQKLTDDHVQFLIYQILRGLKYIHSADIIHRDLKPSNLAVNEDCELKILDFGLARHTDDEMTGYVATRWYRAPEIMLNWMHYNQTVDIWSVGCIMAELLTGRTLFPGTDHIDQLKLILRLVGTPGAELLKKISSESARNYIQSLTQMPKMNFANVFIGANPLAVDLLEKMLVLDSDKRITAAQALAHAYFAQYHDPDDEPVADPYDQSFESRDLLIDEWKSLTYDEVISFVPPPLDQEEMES", "assay": "Inhibition of p38alpha using MBP and [gamma33P]ATP as substrate after 60 mins by scintillation counting"}, "[6]": {"system": "Hepatocyte", "assay": "Drug metabolism in rat hepatocytes after 60 mins", "format": "ADME, cell-based", "details": "1 h"}, "[7]": {"biological_target": "Cytochrome P450 2C9 (Homo sapiens, UniProt P11712)", "sequence (P11712 whole entry)": "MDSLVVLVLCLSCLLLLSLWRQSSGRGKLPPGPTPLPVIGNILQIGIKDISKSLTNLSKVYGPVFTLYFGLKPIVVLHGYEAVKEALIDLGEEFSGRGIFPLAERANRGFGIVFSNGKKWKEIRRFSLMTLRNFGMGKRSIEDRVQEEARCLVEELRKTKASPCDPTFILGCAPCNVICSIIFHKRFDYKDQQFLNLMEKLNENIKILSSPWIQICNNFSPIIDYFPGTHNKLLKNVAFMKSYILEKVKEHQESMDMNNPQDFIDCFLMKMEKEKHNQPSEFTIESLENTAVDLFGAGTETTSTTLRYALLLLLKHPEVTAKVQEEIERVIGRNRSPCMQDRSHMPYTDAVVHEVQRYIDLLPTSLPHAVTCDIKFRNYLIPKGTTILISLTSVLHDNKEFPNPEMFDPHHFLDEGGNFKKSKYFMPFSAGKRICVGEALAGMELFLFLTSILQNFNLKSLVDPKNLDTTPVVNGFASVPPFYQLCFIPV", "assay": "Inhibition of recombinant CYP2C9 up to 30 uM", "format": "ADME", "details": "recombinant enzyme"}, "[8]": {"biological_target": "Mitogen-activated protein kinase 8 (Homo sapiens, UniProt P45983)", "sequence (P45983 whole entry)": "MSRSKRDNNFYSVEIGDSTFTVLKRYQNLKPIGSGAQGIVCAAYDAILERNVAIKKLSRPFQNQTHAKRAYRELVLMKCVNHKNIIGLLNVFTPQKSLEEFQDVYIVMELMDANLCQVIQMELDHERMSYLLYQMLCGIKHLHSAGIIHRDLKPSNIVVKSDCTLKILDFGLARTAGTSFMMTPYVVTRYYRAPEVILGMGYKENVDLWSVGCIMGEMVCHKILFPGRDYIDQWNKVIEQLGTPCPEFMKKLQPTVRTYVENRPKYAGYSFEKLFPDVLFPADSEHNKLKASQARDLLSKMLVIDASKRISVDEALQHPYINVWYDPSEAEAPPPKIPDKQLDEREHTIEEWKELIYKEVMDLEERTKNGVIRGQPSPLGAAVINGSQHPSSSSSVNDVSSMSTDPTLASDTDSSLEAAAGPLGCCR", "assay": "Inhibition of full length Hexa-His-tagged JNK1 using GST-tagged cJun and [gamma33P]ATP as substrate after 60 mins by scintillation counting"}, "[9]": {"biological_target": "CYP3A4 (Homo sapiens, UniProt P08684)", "sequence (P08684 whole entry)": "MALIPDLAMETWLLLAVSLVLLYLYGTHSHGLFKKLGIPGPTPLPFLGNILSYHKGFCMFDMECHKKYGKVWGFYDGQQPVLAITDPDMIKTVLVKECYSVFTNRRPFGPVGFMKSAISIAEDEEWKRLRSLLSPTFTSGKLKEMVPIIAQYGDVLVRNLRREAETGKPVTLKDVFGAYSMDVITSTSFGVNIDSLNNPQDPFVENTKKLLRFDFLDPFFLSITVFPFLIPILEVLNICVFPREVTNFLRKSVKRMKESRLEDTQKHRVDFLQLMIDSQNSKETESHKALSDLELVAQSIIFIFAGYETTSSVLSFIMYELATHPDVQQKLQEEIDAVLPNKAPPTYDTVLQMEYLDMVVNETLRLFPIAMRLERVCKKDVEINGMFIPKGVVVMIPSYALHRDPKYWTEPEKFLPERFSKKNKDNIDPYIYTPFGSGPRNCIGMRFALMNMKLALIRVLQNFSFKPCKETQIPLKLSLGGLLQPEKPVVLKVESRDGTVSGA", "assay": "Drug metabolism assessed as CYP3A4-mediated compound loss after 30 mins", "format": "ADME", "details": "recombinant enzyme; read-out: Drug metabolism"}, "[10]": {"biological_target": "Cytochrome P450 3A4 (Homo sapiens, UniProt P08684)", "sequence (P08684 whole entry)": "as above", "assay": "Inhibition of recombinant CYP3A4 up to 30 uM", "format": "ADME", "details": "recombinant enzyme"}, "[11]": {"assay": "Clearance in rat at 2 to 10 mg/kg, iv", "format": "ADME, organism-based", "parameters": "dose 2-10 mg/kg, route intravenous", "details": "in vivo"}, "[12]": {"system": "Rattus norvegicus", "assay": "Antiischemic activity in Lewis rat ischemia reperfusion model assessed as increase in survival rate at 10 mg/kg, iv bolus administered 15 mins before ischemia challenge relative to control", "format": "functional"}, "[13]": {"assay": "Volume of distribution at steady state in rat at 10 mg/kg, iv infusion", "format": "ADME, organism-based", "parameters": "dose 10 mg/kg, route intravenous", "details": "in vivo, read-out: Vdss"}, "[14]": {"assay": "Metabolic stability of the compound in dog liver microsomes assessed as compound remaining at 3 uM after 30 mins", "format": "ADME, Canis lupus familiaris, Microsome", "details": "read-out: Stability"}, "[15]": {"assay": "Volume of distribution at steady state in dog at 1 mg/kg, iv bolus", "format": "ADME, organism-based, Canis lupus familiaris", "parameters": "dose 1 mg/kg, route intravenous", "details": "in vivo, read-out: Vdss"}}, "data": [{"compound": "N[C@H]1CC[C@H](Nc2ncc3nc(Nc4ccc(F)cc4F)n(C4CCCC4)c3n2)CC1", "values": [{"measurement": "Activity", "setting": "[1]", "value": "Non-toxic"}, {"measurement": "AUC", "setting": "[2]", "value": 1200, "unit": "nM·h"}, {"measurement": "survival at 3 mg/kg", "setting": "[3]", "value": 60, "unit": "%"}, {"measurement": "metabolised at 0.5 h", "setting": "[4]", "value": 1.4, "unit": "%"}, {"measurement": "IC50", "setting": "[5]", "value": 0.22, "unit": "µM"}, {"measurement": "Drug metabolism", "setting": "[6]", "value": "Not Active"}, {"measurement": "inhibition (INH)", "setting": "[7]", "value": "Not Active"}, {"measurement": "IC50", "setting": "[8]", "value": 0.27, "unit": "µM"}, {"measurement": "metabolised at 0.5 h", "setting": "[9]", "value": 10, "unit": "%"}, {"measurement": "inhibition (INH)", "setting": "[10]", "value": "Not Active"}, {"measurement": "clearance", "setting": "[11]", "value": 3.96, "unit": "L/h/kg"}, {"measurement": "survival at 10 mg/kg", "setting": "[12]", "value": 80, "unit": "%"}, {"measurement": "Vd", "setting": "[13]", "value": 55, "unit": "L/kg"}, {"measurement": "remaining at 0.5 h, 3 µM", "setting": "[14]", "value": 100, "unit": "%"}, {"measurement": "Vd", "setting": "[15]", "value": 30, "unit": "L/kg"}]}]}
